Values quoted from earlier work, collected in patent publication US20220184159A1, “METHOD OF BOOSTING INNATE IMMUNITY” (UNIVERSITY OF THE SUNSHINE COAST, priority 2018, published 2022).

Assays:
immune system of fish = conditions: carp, rainbow trout, turbot and Atlantic cod
[1] = administered in the feed, fish

## CN(C)[C@@H]1C(O)=C(C(N)=O)C(=O)[C@@]2(O)C(O)=C3C(=O)c4c(O)cccc4[C@@](C)(O)[C@H]3[C@H](O)[C@@H]12 [Oxytetracycline]
Immune system of fish
  effect on the immune system of fish: immunosuppressive effects
[1]
  ingested oxytetracycline excreted intact in the faeces: 70-80%
